Experimental data taken from the CheMixHub viscosity set.
Values joined by “and” are separate entries in the source; they are usually repeats but may differ in a detail not shown here. Equal values may be shown once.

Test: xn = mol fraction of the nth substance listed

CCOC(=O)OCC + CCCCCCO
101 kPa
Settings | viscosity [mPa·s]
293.15 K, x1 = 0.0551 | 4.432
293.15 K, x1 = 0.1001 | 3.822
293.15 K, x1 = 0.2106 | 2.778
293.15 K, x1 = 0.3101 | 2.17
293.15 K, x1 = 0.4052 | 1.77
293.15 K, x1 = 0.5061 | 1.454
293.15 K, x1 = 0.6093 | 1.229
293.15 K, x1 = 0.7555 | 0.999
293.15 K, x1 = 0.7968 | 0.958
293.15 K, x1 = 0.8927 | 0.868
293.15 K, x1 = 0.9522 | 0.826
303.15 K, x1 = 0.05134 | 3.305
303.15 K, x1 = 0.1004 | 2.818
303.15 K, x1 = 0.2102 | 2.088
303.15 K, x1 = 0.3094 | 1.667
303.15 K, x1 = 0.4091 | 1.367
303.15 K, x1 = 0.5094 | 1.145
303.15 K, x1 = 0.6017 | 0.998
303.15 K, x1 = 0.7089 | 0.873
303.15 K, x1 = 0.8045 | 0.795
303.15 K, x1 = 0.9051 | 0.734
303.15 K, x1 = 0.9543 | 0.715
313.15 K, x1 = 0.06803 | 2.378
313.15 K, x1 = 0.222 | 1.602
313.15 K, x1 = 0.3216 | 1.303
313.15 K, x1 = 0.4055 | 1.125
313.15 K, x1 = 0.5084 | 0.954
313.15 K, x1 = 0.6037 | 0.839
313.15 K, x1 = 0.7059 | 0.748
313.15 K, x1 = 0.8097 | 0.682
313.15 K, x1 = 0.9065 | 0.642
313.15 K, x1 = 0.957 | 0.625

Cc1ccccc1C + CCCCCCO
viscosity, 101 kPa
Settings | 303.15 K | 313.15 K | 318.15 K | 323.15 K
x2 = 0.0999 | 0.758 mPa·s | 0.663 mPa·s | – | 0.584 mPa·s
x2 = 0.1 | 0.7581 mPa·s | 0.6626 mPa·s | – | 0.5835 mPa·s
x2 = 0.1999 | 0.852 mPa·s | 0.731 mPa·s | – | 0.637 mPa·s
x2 = 0.2 | 0.852 mPa·s | 0.7312 mPa·s | 0.6825 mPa·s | 0.6374 mPa·s
x2 = 0.2999 | 0.978 mPa·s | 0.829 mPa·s | – | 0.713 mPa·s
x2 = 0.3 | 0.9776 mPa·s | 0.8292 mPa·s | – | 0.7127 mPa·s
x2 = 0.4 | 1.142 mPa·s | 0.9571 mPa·s | – | 0.8098 mPa·s
x2 = 0.4001 | 1.142 mPa·s | 0.957 mPa·s | – | 0.81 mPa·s
x2 = 0.4997 | 1.361 mPa·s | 1.118 mPa·s | – | 0.933 mPa·s
x2 = 0.5 | 1.361 mPa·s | 1.118 mPa·s | – | 0.933 mPa·s
x2 = 0.6 | 1.651 mPa·s and 1.651 mPa·s | 1.325 mPa·s and 1.325 mPa·s | – | 1.087 mPa·s and 1.087 mPa·s
x2 = 0.7 | 2.034 mPa·s and 2.034 mPa·s | 1.596 mPa·s and 1.596 mPa·s | – | 1.284 mPa·s and 1.284 mPa·s
x2 = 0.8 | 2.532 mPa·s and 2.532 mPa·s | 1.951 mPa·s and 1.951 mPa·s | – | 1.541 mPa·s and 1.541 mPa·s
x2 = 0.8999 | 3.141 mPa·s | 2.391 mPa·s | – | 1.859 mPa·s
x2 = 0.9 | 3.141 mPa·s | 2.391 mPa·s | – | 1.859 mPa·s

CN1CCN(C)C1=O + CCCCCCn1cc[n+](C)c1.[Cl-]
100 kPa
Settings | viscosity [mPa·s]
298.15 K, x2 = 0.1007 | 4.815
303.15 K, x2 = 0.7981 | 978.5

CC(C)[C@@H]1CC[C@@H](C)C[C@H]1O + CCCCO
Settings | viscosity [mPa·s]
298.15 K, 101.33 kPa, x1 = 0.5 | 18.77

CCCCCCCCCCO + CCCCO
viscosity [mPa·s]
Settings | 293.15 K | 298.15 K | 308.15 K | 318.15 K
101 kPa, x2 = 0.05 | – | 10.62 | 7.143 | 5.139
101 kPa, x2 = 0.1 | – | 10.2 | 6.798 | 4.922
101 kPa, x2 = 0.15 | – | 9.731 | 6.473 | 4.71
101 kPa, x2 = 0.2 | – | 9.226 | 6.163 | 4.501
101 kPa, x2 = 0.25 | – | 8.701 | 5.866 | 4.294
101 kPa, x2 = 0.3 | – | 8.167 | 5.576 | 4.088
101 kPa, x2 = 0.35 | – | 7.635 | 5.292 | 3.883
101 kPa, x2 = 0.4 | – | 7.113 | 5.012 | 3.678
101 kPa, x2 = 0.45 | – | 6.609 | 4.734 | 3.475
101 kPa, x2 = 0.5 | – | 6.127 | 4.456 | 3.272
101 kPa, x2 = 0.55 | – | 5.671 | 4.179 | 3.07
101 kPa, x2 = 0.6 | – | 5.243 | 3.903 | 2.872
101 kPa, x2 = 0.65 | – | 4.843 | 3.629 | 2.676
101 kPa, x2 = 0.7 | – | 4.47 | 3.358 | 2.485
101 kPa, x2 = 0.75 | – | 4.12 | 3.093 | 2.301
101 kPa, x2 = 0.8 | – | 3.788 | 2.837 | 2.124
101 kPa, x2 = 0.85 | – | 3.468 | 2.592 | 1.958
101 kPa, x2 = 0.9 | – | 3.152 | 2.364 | 1.804
101 kPa, x2 = 0.95 | – | 2.828 | 2.157 | 1.665
101.33 kPa, x2 = 0.1748 | 11.91 | – | – | –
101.33 kPa, x2 = 0.1793 | – | 9.791 | – | –
101.33 kPa, x2 = 0.2939 | 10.27 | – | – | –
101.33 kPa, x2 = 0.4002 | – | 7.559 | – | –
101.33 kPa, x2 = 0.491 | 7.756 | – | – | –
101.33 kPa, x2 = 0.5389 | – | 6.102 | – | –
101.33 kPa, x2 = 0.6325 | 6.156 | – | – | –
101.33 kPa, x2 = 0.7242 | – | 4.498 | – | –
101.33 kPa, x2 = 0.7787 | 4.69 | – | – | –
101.33 kPa, x2 = 0.836 | – | 3.659 | – | –
101.33 kPa, x2 = 0.8851 | 3.806 | – | – | –
101.33 kPa, x2 = 0.9219 | – | 3.077 | – | –

CCOC(=O)OCC + CCCCO
101 kPa
Settings | viscosity [mPa·s]
293.15 K, x1 = 0.05477 | 2.407
293.15 K, x1 = 0.1013 | 2.092
293.15 K, x1 = 0.1989 | 1.633
293.15 K, x1 = 0.3128 | 1.321
293.15 K, x1 = 0.4106 | 1.145
293.15 K, x1 = 0.5009 | 1.023
293.15 K, x1 = 0.6135 | 0.901
293.15 K, x1 = 0.7033 | 0.838
293.15 K, x1 = 0.7967 | 0.806
293.15 K, x1 = 0.8803 | 0.807
293.15 K, x1 = 0.9292 | 0.802
303.15 K, x1 = 0.1264 | 1.549
303.15 K, x1 = 0.2963 | 1.093
303.15 K, x1 = 0.4038 | 0.957
303.15 K, x1 = 0.5148 | 0.867
303.15 K, x1 = 0.6085 | 0.808
303.15 K, x1 = 0.7037 | 0.759
303.15 K, x1 = 0.8066 | 0.717
303.15 K, x1 = 0.9043 | 0.701
313.15 K, x1 = 0.04531 | 1.564
313.15 K, x1 = 0.2917 | 0.947
313.15 K, x1 = 0.4025 | 0.819
313.15 K, x1 = 0.5009 | 0.743
313.15 K, x1 = 0.6129 | 0.679
313.15 K, x1 = 0.7014 | 0.645
313.15 K, x1 = 0.81 | 0.628
313.15 K, x1 = 0.9091 | 0.619

Cc1ccccc1C + CCCCO
308.15 K, 101 kPa
Settings | viscosity [mPa·s]
x2 = 0.0515 | 0.62
x2 = 0.1019 | 0.659
x2 = 0.1872 | 0.672
x2 = 0.3031 | 0.687
x2 = 0.4127 | 0.752
x2 = 0.5164 | 0.808
x2 = 0.6146 | 0.912
x2 = 0.7079 | 1.021
x2 = 0.7965 | 1.135
x2 = 0.8809 | 1.326
x2 = 0.9612 | 1.564

CCC#N + CCCCOC(C)=O
303.15 K, 101.33 kPa
Settings | viscosity [mPa·s]
x1 = 0.11 | 0.6161
x1 = 0.2014 | 0.5958
x1 = 0.2942 | 0.5799
x1 = 0.4034 | 0.5557
x1 = 0.5034 | 0.5332
x1 = 0.594 | 0.5076
x1 = 0.7008 | 0.4785
x1 = 0.798 | 0.4496
x1 = 0.8966 | 0.419

Cc1ccccc1C + CCCO
viscosity [mPa·s], 100 kPa
Settings | 298.15 K | 308.15 K
x2 = 0.063 | 0.7471 | 0.6664
x2 = 0.123 | 0.7703 | 0.6751
x2 = 0.2215 | 0.784 | 0.6782
x2 = 0.3496 | 0.8508 | 0.7537
x2 = 0.4648 | 0.9239 | 0.806
x2 = 0.5689 | 1.017 | 0.8647
x2 = 0.6634 | 1.124 | 0.9367
x2 = 0.7497 | 1.264 | 1.029
x2 = 0.8287 | 1.454 | 1.155
x2 = 0.9014 | 1.626 | 1.275
x2 = 0.9684 | 1.836 | 1.49
